Experimental data reported in patent US11434242B2, “Dopamine-b-hydroxylase inhibitors” (BIAL-PORTELA & Cª, S.A., priority 2017, dated 2022).
Marks after values point to notes of the source that are not given here.

Molecular target: T1, Dopamine beta hydroxylase (Homo sapiens, UniProt P09172)
T1 construct: 125 μl of plasma; tissue Instituto Português do Sangue Transplantação; host or cells: human plasma from healthy donors
T1 sequence (P09172 40-617 limits assumed): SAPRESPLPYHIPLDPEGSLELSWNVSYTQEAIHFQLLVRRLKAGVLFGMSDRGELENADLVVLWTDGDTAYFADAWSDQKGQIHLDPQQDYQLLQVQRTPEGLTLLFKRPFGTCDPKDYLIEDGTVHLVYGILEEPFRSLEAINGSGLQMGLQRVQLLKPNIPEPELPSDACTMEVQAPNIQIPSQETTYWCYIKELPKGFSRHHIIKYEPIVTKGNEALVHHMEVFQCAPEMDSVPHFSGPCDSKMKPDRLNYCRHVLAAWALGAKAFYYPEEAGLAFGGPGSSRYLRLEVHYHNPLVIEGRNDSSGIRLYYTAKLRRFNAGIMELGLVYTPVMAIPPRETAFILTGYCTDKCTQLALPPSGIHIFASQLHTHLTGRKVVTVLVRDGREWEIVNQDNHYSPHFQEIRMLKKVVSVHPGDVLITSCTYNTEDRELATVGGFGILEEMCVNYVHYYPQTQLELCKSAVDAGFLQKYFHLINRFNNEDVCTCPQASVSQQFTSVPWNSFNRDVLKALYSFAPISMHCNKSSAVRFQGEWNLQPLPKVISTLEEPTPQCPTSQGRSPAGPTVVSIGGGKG
Experiment: Dopamine beta hydroxylase activity in human plasma
Type: biochemical
In short: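 Healthy-donor human plasma pre-incubated 10 min at 37° C with compound at final 10, 100 or 1000 nM in pH 5.0 acetate buffer with ascorbate, fumarate, pargyline, N-ethylmaleimide, catalase and copper sulfate. Tyramine substrate then added for 45 min; octopamine formed was isolated by SCX cartridge, periodate-converted and read at 330 nm; activity given as % control.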

| SMILES | Plasma (0.01 μM), activity in % of control (inhibitor 0.01 μM) | Plasma (0.1 μM), activity in % of control (inhibitor 0.1 μM) | Plasma (0.01 μM), activity in % of control, re-test (asterisked) (inhibitor 0.01 μM, re-tested under the same experimental conditions, asterisked data believed to be correct) | Plasma (0.1 μM), activity in % of control, re-test (asterisked) (inhibitor 0.1 μM, re-tested under the same experimental conditions, asterisked data believed to be correct) |
| --- | --- | --- | --- | --- |
| Cn1c(CC(=O)N2CCC(CF)C2)c2n(c1=S)C[C@@H](c1c(F)ccc(F)c1F)C2 (stereo partly drawn) [Example 353, 1-(3-(fluoromethyl)pyrrolidin-1-yl)-2-((R)-2-methyl-3-thioxo-6-(2,3,6-trifluorophenyl)-2,5,6,7-tetrahydro-3H-pyrrolo[1,2-c]imidazol-1-yl)ethan-1-one] | 90.6 % of control | 38.4 % of control |  |  |
| Cn1c(CC(=O)N[C@@H]2CCCNC2=O)c2n(c1=S)C[C@@H](c1c(F)ccc(F)c1F)C2 [Example 354, 2-((R)-2-methyl-3-thioxo-6-(2,3,6-trifluorophenyl)-2,5,6,7-tetrahydro-3H-pyrrolo[1,2-c]imidazol-1-yl)-N—((R)-2-oxopiperidin-3-yl)acetamide] | 106.2 % of control | 53.4 % of control |  |  |
| Cn1c(CC(=O)NC2CC2)c2n(c1=S)C[C@@]1(c3cc(Br)ccc3F)C[C@@H]21 [Example 357, 2-((5aS,6aR)-5a-(5-bromo-2-fluorophenyl)-2-methyl-3-thioxo-2,3,5,5a,6,6a-hexahydrocyclopropa[3,4]pyrrolo[1,2-c]imidazol-1-yl)-N-cyclopropylacetamide] | 62.1 % of control | 15.1 % of control |  |  |
| CN(C)C(=O)C1CCN(C(=O)Cc2c3n(c(=S)n2C)C[C@@H](c2c(F)ccc(F)c2F)C3)C1 (stereo partly drawn) [Example 358, N,N-dimethyl-1-(2-((R)-2-methyl-3-thioxo-6-(2,3,6-trifluorophenyl)-2,5,6,7-tetrahydro-3H-pyrrolo[1,2-c]imidazol-1-yl)acetyl)pyrrolidine-3-carboxamide] | 90.1 % of control | 24.9 % of control |  |  |
| O=C(O)Cc1[nH]c(=S)n2c1[C@@H]1C[C@]1(c1cc(Br)ccc1F)C2 [Example 361, 2-((5aS,6aR)-5a-(5-bromo-2-fluorophenyl)-3-thioxo-2,3,5,5a,6,6a-hexahydrocyclopropa[3,4]pyrrolo[1,2-c]imidazol-1-yl)acetic Acid] | 60.0 % of control | 10.4 % of control |  |  |
| O=C(Cc1[nH]c(=S)n2c1C[C@@H](c1c(F)ccc(Cl)c1F)C2)N1CCOCC1 [Example 363, (S)-2-(6-(3-chloro-2,6-difluorophenyl)-3-thioxo-2,5,6,7-tetrahydro-3H-pyrrolo[1,2-c]imidazol-1-yl)-1-morpholinoethan-1-one] | 89.5 % of control | 20.8 % of control |  |  |
| O=C(Cc1[nH]c(=S)n2c1C[C@H](c1c(F)ccc(F)c1F)C2)N1CCOCC1 [Example 366, (R)-2-(6-(2,3,6-trifluorophenyl)-3-thioxo-2,5,6,7-tetrahydro-3H-pyrrolo[1,2-c]imidazol-1-yl)-1-morpholinoethan-1-one] | 124.8 % of control | 81.4 % of control |  |  |
| Cn1c(CC(=O)NC2CCOCC2)c2n(c1=S)C[C@H](c1c(F)ccc(Cl)c1F)C2 [Example 367, (S)-2-(6-(3-chloro-2,6-difluorophenyl)-2-methyl-3-thioxo-2,5,6,7-tetrahydro-3H-pyrrolo[1,2-c]imidazol-1-yl)-N-(tetrahydro-2H-pyran-4-yl)acetamide] | 45.4 % of control | 4.3 % of control |  |  |
| O=C(Cc1[nH]c(=S)n2c1C[C@H](c1c(F)ccc(F)c1F)C2)N[C@@H]1CCOC1 [Example 368, 2-((R)-6-(2,3,6-trifluorophenyl)-3-thioxo-2,5,6,7-tetrahydro-3H-pyrrolo[1,2-c]imidazol-1-yl)-N—((R)-tetrahydrofuran-3-yl)acetamide] | 104.4 % of control | 63.1 % of control |  |  |
| O=C(Cc1[nH]c(=S)n2c1C[C@H](c1c(F)c(F)cc(F)c1F)C2)N[C@H]1CCOC1 [Example 369, 2-((R)-6-(2,3,5,6-tetrafluorophenyl)-3-thioxo-2,5,6,7-tetrahydro-3H-pyrrolo[1,2-c]imidazol-1-yl)-N—((S)-tetrahydrofuran-3-yl)acetamide] | 86.0 % of control | 60.1 % of control |  |  |
| CN1CC(NC(=O)Cc2c3n(c(=S)n2C)C[C@@H](c2c(F)ccc(F)c2F)C3)CCC1=O (stereo partly drawn) [Example 371, 2-((R)-2-methyl-3-thioxo-6-(2,3,6-trifluorophenyl)-2,5,6,7-tetrahydro-3H-pyrrolo[1,2-c]imidazol-1-yl)-N-(1-methyl-6-oxopiperidin-3-yl)acetamide] | 79.0 % of control | 17.7 % of control |  |  |

Other lines, results leading:

| Plasma (0.01 μM), activity in % of control (inhibitor 0.01 μM) | Plasma (0.1 μM), activity in % of control (inhibitor 0.1 μM) | Plasma (0.01 μM), activity in % of control, re-test (asterisked) (inhibitor 0.01 μM, re-tested under the same experimental conditions, asterisked data believed to be correct) | Plasma (0.1 μM), activity in % of control, re-test (asterisked) (inhibitor 0.1 μM, re-tested under the same experimental conditions, asterisked data believed to be correct) | SMILES |
| --- | --- | --- | --- | --- |
| 56.4 % of control | 14.0 % of control |  |  | Cn1c(CC(=O)N[C@H]2CC[C@H](O)CC2)c2n(c1=S)C[C@@]1(c3cc(Cl)ccc3F)C[C@@H]21 [Example 355, 2-((5aS,6aR)-5a-(5-chloro-2-fluorophenyl)-2-methyl-3-thioxo-2,3,5,5a,6,6a-hexahydrocyclopropa[3,4]pyrrolo[1,2-c]imidazol-1-yl)-N-((1r,4R)-4-hydroxycyclohexyl)acetamide] |
| 35.4 % of control | 6.6 % of control |  |  | Cn1c(CC(=O)NC2CCCCC2)c2n(c1=S)C[C@H](c1c(F)ccc(Cl)c1F)C2 [Example 356, (S)-2-(6-(3-chloro-2,6-difluorophenyl)-2-methyl-3-thioxo-2,5,6,7-tetrahydro-3H-pyrrolo[1,2-c]imidazol-1-yl)-N-cyclohexylacetamide] |
| 101.2 % of control | 53.3 % of control |  |  | Cn1c(CCN[C@@H]2CCOC2)c2n(c1=S)C[C@@]1(c3cc(Br)ccc3F)C[C@@H]21 [Example 359, (5aS,6aR)-5a-(5-bromo-2-fluorophenyl)-2-methyl-1-(2-(((R)-tetrahydrofuran-3-yl)amino)ethyl)-5,5a,6,6a-tetrahydrocyclopropa[3,4]pyrrolo[1,2-c]imidazole-3(2H)-thione] |
| 31.8 % of control | 1.4 % of control | 90.1* % of control | 22.5* % of control | O=C(Cc1[nH]c(=S)n2c1C[C@H](c1c(F)c(F)cc(F)c1F)C2)N[C@@H]1CCOC1 [Example 360, 2-((R)-6-(2,3,5,6-tetrafluorophenyl)-3-thioxo-2,5,6,7-tetrahydro-3H-pyrrolo[1,2-c]imidazol-1-yl)-N—((R)-tetrahydrofuran-3-yl)acetamide] |
| 43.2 % of control | 11.8 % of control |  |  | O=C(Cc1[nH]c(=S)n2c1C[C@@H](c1c(F)ccc(Cl)c1F)C2)N[C@@H]1CCOC1 [Example 362, 2-((S)-6-(3-chloro-2,6-difluorophenyl)-3-thioxo-2,5,6,7-tetrahydro-3H-pyrrolo[1,2-c]imidazol-1-yl)-N—((R)-tetrahydrofuran-3-yl)acetamide] |
| 97.0 % of control | 54.7 % of control |  |  | CN(C(=O)Cc1[nH]c(=S)n2c1C[C@H](c1c(F)ccc(F)c1F)C2)C1CCOC1 (stereo partly drawn) [Example 364, N-methyl-N-(tetrahydrofuran-3-yl)-2-((R)-3-thioxo-6-(2,3,6-trifluorophenyl)-2,5,6,7-tetrahydro-3H-pyrrolo[1,2-c]imidazol-1-yl)acetamide] |
| 101.3 % of control | 56.9 % of control |  |  | O=C(Cc1[nH]c(=S)n2c1C[C@H](c1c(F)ccc(F)c1F)C2)N[C@@H]1CCCOC1 [Example 365, N—((R)-tetrahydro-2H-pyran-3-yl)-2-((R)-3-thioxo-6-(2,3,6-trifluorophenyl)-2,5,6,7-tetrahydro-3H-pyrrolo[1,2-c]imidazol-1-yl)acetamide] |
| 88.5 % of control | 64.7 % of control |  |  | O=C(Cc1[nH]c(=S)n2c1C[C@H](c1c(F)ccc(F)c1F)C2)N[C@H]1CCOC1 [Example 370, 2-((R)-6-(2,3,6-trifluorophenyl)-3-thioxo-2,5,6,7-tetrahydro-3H-pyrrolo[1,2-c]imidazol-1-yl)-N—((S)-tetrahydrofuran-3-yl)acetamide] |
| 93.4 % of control | 32.0 % of control |  |  | CN(C(=O)Cc1c2n(c(=S)n1C)C[C@@H](c1c(F)ccc(F)c1F)C2)C1CCOCC1 [Example 372, (R)—N-methyl-2-(2-methyl-3-thioxo-6-(2,3,6-trifluorophenyl)-2,5,6,7-tetrahydro-3H-pyrrolo[1,2-c]imidazol-1-yl)-N-(tetrahydro-2H-pyran-4-yl)acetamide] |
